Laboratory results reported in ChEMBL document CHEMBL1123367, “Furanose-pyranose isomerization of reduced pyrimidine and cyclic urea ribosides” (J Med Chem, 1986).

Assays:
[1] = target: Cytidine deaminase (Mus musculus, UniProt P56389); assay: Compound was tested […] for its ability to inhibit mouse kidney cytidine deaminase (CDA)
[2] = Half-life of the initial pseudo-first-order isomerization at apparent pH 2.8 and 37 degree celsius; type: ADME; settings: read-out: T1/2 app (converted)
[3] = Half-life of the initial pseudo-first-order isomerization at apparent pH 1.0 and 25 degree celsius; type: ADME; settings: read-out: T1/2 app
[4] = Half-life of the initial pseudo-first-order isomerization at apparent pH 2.0 and 25 degree celsius; type: ADME; settings: read-out: T1/2 app (converted)
[5] = Half-life of the initial pseudo-first-order isomerization at apparent pH 1.0 and 37 degree celsius; type: ADME; settings: read-out: T1/2 app (converted)

Cytidine deaminase, sequence (P56389 whole entry): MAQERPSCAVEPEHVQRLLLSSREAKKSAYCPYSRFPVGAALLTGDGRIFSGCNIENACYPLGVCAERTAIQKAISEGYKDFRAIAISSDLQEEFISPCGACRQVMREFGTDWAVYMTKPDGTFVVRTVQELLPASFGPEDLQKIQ

SMILES	Ki [1]	half-life [2]	half-life [3]	half-life [4]	half-life [5]
O=C1NCCCN1C1OC[C@@H](O)[C@H](O)[C@@H]1O (stereo partly specified)	> 50 µM	–	–	–	–
O=C1NCCCN1[C@@H]1O[C@H](CO)[C@@H](O)[C@H]1O	–	5.2 h	< 0.2 h	2.23 h	0.63 h
O=C1NCCCCN1[C@@H]1OC[C@@H](O)[C@@H](O)[C@H]1O	6.6 µM	–	–	–	–
